# Experimental data taken from patent US12371428B2 (Exelixis, Inc., priority 2019, dated 2025).
# Legend:
# [1] = molecular target: Human KDR (residues 790-1356) (Homo sapiens (Human), UniProt P35968); assay: Human KDR kinase assay, HTRF KinEase (Example B-2); format: biochemical; conditions: protocol of Example B-2 (other compounds)
# Summary of the method: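 Ten compound concentrations (3% DMSO final) were pre-plated, then KDR (790-1356) with biotinylated peptide in Mg/Mn/DTT buffer was added; ATP at Km (4.0 μM) started a 40 min room-temperature reaction. Detection used Eu-TK antibody and SA-XL665 in EDTA buffer; activity normalized to DMSO and reference inhibitor, IC50 by logistic fit.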
# [2] = molecular target: Human MER (residues 528-999) (Homo sapiens (Human), UniProt Q12866); assay: Human Mer kinase assay, HTRF KinEase (Example C-2); format: biochemical; conditions: protocol of Example C-2 (other compounds)
# Chain of Human MER (residues 528-999) (Q12866 528-999): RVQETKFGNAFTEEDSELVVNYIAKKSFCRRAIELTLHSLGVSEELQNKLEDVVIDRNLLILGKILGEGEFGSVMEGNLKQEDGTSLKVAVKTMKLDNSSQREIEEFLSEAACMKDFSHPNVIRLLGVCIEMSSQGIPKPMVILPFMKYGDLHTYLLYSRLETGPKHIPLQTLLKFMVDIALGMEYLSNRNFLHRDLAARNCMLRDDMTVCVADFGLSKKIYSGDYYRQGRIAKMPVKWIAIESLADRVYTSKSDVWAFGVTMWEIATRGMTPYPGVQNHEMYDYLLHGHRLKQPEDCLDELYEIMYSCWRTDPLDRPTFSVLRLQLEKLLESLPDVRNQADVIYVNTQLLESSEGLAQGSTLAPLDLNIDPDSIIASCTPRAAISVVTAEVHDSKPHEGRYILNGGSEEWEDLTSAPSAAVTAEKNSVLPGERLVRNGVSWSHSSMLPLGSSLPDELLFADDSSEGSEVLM
# Summary of the method: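 HTRF KinEase TK assay with MER 528-999 (1 ng/well) in enzymatic buffer plus 5 mM MgCl2 and 1 mM DTT, biotinylated peptide substrate and ATP at Km (40 μM), 3% DMSO final, 60 min at room temperature. Stopped with EDTA detection mix (SA-XL665, TK antibody-Eu3+), read at 665/620 nm after 60 min; IC50 from 10-point 4-parameter fit, normalized to DMSO and 1 μM reference.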
# [3] = molecular target: Met (phospho-Met, HGF-stimulated PC-3 prostate cancer cells) (Homo sapiens (Human), UniProt P08581); assay: Met autophosphorylation ELISA in PC-3 cells (Example F); format: cell-based; conditions: cellular activity; Met autophosphorylation ELISA in PC-3 cells; read-out: c-Met IC50
# Chain of Met (phospho-Met, HGF-stimulated PC-3 prostate cancer cells) (P08581 25-1390): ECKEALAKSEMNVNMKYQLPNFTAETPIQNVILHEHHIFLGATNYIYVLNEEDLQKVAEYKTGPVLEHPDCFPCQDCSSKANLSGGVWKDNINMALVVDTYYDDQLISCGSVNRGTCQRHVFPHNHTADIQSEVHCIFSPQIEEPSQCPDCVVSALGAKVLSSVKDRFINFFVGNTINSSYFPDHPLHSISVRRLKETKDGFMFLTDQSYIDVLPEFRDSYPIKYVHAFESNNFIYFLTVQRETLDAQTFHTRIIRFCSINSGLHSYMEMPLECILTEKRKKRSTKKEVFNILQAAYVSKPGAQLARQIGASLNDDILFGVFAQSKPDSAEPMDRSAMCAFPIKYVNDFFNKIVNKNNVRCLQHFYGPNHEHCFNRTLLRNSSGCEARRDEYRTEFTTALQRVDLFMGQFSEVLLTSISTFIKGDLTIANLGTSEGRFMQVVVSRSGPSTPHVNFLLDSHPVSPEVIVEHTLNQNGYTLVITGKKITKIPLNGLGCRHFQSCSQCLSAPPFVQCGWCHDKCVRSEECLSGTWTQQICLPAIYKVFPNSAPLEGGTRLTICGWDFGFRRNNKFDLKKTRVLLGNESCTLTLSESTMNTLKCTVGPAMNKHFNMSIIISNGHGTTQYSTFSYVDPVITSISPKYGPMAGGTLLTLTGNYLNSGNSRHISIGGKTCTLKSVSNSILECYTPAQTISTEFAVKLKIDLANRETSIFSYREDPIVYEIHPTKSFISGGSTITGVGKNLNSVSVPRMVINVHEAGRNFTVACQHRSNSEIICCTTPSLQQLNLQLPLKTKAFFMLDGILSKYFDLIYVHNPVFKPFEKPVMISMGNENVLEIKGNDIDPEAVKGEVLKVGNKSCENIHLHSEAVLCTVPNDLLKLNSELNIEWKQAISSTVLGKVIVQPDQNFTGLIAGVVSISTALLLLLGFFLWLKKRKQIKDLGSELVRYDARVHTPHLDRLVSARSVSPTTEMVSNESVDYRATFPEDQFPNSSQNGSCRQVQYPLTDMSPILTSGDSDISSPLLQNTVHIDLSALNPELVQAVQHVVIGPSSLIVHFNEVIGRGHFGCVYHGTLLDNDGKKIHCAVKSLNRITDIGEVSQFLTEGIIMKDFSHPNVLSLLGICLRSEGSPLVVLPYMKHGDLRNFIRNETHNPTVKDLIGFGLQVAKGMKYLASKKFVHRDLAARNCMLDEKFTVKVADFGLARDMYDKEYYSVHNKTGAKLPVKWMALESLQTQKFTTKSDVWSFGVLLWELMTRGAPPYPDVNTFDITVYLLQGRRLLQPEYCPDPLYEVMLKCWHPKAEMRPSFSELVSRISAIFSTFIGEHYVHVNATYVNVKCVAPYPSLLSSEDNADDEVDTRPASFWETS
# Summary of the method: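 IC50 values derive from a 4-parameter logistic fit of phospho-Met (panTyr) sandwich ELISA signals in PC-3 lysates, scaled between DMSO and reference-inhibitor wells. Cells, starved 3 h in serum-free medium, had 1 h compound exposure (8 doses, 0.3% DMSO) before 10 min stimulation with 100 ng/mL HGF.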
# [4] = molecular target: KDR (phospho-KDR, VEGF165-stimulated HUVEC cells) (Homo sapiens (Human), UniProt P35968); assay: KDR autophosphorylation ELISA in HUVEC cells (Example G); format: cell-based; conditions: cellular activity; KDR autophosphorylation ELISA in HUVEC cells
# Chain of KDR (phospho-KDR, VEGF165-stimulated HUVEC cells) (P35968 20-1356): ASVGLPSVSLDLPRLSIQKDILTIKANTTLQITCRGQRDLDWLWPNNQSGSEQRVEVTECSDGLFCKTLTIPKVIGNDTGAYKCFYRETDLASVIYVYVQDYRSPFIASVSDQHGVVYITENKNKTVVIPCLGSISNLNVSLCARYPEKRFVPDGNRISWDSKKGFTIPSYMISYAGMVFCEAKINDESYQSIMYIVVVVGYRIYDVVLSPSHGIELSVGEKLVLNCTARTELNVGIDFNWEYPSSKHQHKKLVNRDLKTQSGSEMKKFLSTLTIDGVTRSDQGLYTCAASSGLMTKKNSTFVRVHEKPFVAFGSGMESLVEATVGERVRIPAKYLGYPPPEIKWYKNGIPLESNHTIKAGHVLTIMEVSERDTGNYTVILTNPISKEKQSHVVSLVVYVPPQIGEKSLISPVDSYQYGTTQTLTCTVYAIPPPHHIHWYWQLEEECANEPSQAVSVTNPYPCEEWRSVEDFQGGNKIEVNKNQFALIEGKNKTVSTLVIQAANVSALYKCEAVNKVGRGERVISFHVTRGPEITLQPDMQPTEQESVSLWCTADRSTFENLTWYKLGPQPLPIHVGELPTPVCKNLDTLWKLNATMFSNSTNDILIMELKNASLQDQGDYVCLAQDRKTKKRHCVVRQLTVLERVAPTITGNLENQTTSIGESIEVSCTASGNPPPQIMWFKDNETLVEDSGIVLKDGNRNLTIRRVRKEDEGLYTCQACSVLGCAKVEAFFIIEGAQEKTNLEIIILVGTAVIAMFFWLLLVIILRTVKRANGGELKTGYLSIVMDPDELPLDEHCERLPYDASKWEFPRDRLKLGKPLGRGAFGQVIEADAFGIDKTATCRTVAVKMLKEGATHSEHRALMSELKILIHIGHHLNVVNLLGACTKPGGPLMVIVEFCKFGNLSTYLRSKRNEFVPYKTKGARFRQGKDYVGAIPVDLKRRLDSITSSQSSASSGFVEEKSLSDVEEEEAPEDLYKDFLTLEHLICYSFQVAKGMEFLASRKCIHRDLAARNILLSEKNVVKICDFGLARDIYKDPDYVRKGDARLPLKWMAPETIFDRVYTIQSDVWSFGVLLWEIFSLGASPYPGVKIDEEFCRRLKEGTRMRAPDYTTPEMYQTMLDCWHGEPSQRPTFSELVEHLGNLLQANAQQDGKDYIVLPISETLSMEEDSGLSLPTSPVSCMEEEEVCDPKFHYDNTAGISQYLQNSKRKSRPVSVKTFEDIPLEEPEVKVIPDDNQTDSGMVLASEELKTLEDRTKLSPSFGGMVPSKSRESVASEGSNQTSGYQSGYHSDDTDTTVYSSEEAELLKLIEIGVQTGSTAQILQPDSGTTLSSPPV
# Summary of the method: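 Read-out is phospho-KDR measured by ELISA in lysates of VEGF165-stimulated (100 ng/mL, 5 min) HUVEC that were serum-starved 24 h and then pre-exposed 1 h to compound across 8 doses in 0.3% DMSO. Unstimulated lysates defined 0% and stimulated vehicle lysates 100% activity; IC50 values come from 4-parameter logistic regression.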
# Chain of Human KDR (residues 790-1356) (P35968 790-1356): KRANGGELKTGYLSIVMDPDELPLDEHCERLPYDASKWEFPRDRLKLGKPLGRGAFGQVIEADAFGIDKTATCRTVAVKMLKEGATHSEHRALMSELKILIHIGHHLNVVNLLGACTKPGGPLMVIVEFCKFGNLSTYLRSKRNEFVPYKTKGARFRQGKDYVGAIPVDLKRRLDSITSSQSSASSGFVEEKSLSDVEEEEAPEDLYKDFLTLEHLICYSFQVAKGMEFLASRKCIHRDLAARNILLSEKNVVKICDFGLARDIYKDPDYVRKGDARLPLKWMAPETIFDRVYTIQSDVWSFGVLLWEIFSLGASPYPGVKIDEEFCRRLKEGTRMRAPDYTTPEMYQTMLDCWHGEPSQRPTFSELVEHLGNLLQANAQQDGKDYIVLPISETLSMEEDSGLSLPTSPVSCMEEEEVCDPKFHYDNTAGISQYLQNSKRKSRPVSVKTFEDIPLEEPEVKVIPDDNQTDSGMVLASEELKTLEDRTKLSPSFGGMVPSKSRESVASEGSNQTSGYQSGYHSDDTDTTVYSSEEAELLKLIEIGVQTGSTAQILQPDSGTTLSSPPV
Compound,IC50 [1] [nM],IC50 [2] [nM],IC50 [3] [nM],IC50 [4] [nM]
"COc1cc2nccc(Oc3ccc(NC(=O)c4cn(C)c(CF)c(-c5ccc(F)cc5)c4=O)cc3F)c2nc1OC [Compound 73, N-[4-[(6,7-Dimethoxy-1,5-naphthyridin-4-yl)oxy]-3-fluorophenyl]-6-(fluoromethyl)-5-(4-fluorophenyl)-1-methyl-4-oxopyridine-3-carboxamide]",100 to 300,< 100,< 100,< 100
"COc1cc2nccc(Oc3ccc(NC(=O)c4cn(CC(F)(F)F)c(C)c(-c5ccc(F)cc5)c4=O)cc3F)c2nc1OC [Compound 74, N-[4-[(6,7-Dimethoxy-1,5-naphthyridin-4-yl)oxy]-3-fluorophenyl]-5-(4-fluorophenyl)-6-methyl-4-oxo-1-(2,2,2-trifluoroethyl)pyridine-3-carboxamide]",< 100,< 100,< 100,100 to 300
"COc1cc2nccc(Oc3ccc(NC(=O)c4cn(C)c(C)c(-c5ccc(F)cc5C)c4=O)cc3F)c2nc1OC [Compound 75, N-[4-[(6,7-Dimethoxy-1,5-naphthyridin-4-yl)oxy]-3-fluorophenyl]-5-(4-fluoro-2-methylphenyl)-1,6-dimethyl-4-oxopyridine-3-carboxamide]",100 to 300,< 100,< 100,< 100
"CNc1c(-c2ccc(F)cc2)c(=O)c(C(=O)Nc2ccc(Oc3ccnc4cc(OC)c(OC)nc34)c(F)c2)cn1C [Compound 76, N-[4-[(6,7-Dimethoxy-1,5-naphthyridin-4-yl)oxy]-3-fluorophenyl]-5-(4-fluorophenyl)-1-methyl-6-(methylamino)-4-oxopyridine-3-carboxamide]",< 100,< 100,< 100,< 100
"COc1cc2nccc(Oc3ccc(NC(=O)c4cn(C)c(C#N)c(-c5ccc(F)cc5)c4=O)cc3F)c2nc1OC [Compound 77, 6-Cyano-N-[4-[(6,7-dimethoxy-1,5-naphthyridin-4-yl)oxy]-3-fluorophenyl]-5-(4-fluorophenyl)-1-methyl-4-oxopyridine-3-carboxamide]",> 300,< 100,< 100,> 300
"COc1cc2nccc(Oc3ccc(NC(=O)c4cn(C)c(OC)c(-c5ccc(F)cc5)c4=O)cc3F)c2nc1OC [Compound 78, N-[4-[(6,7-Dimethoxy-1,5-naphthyridin-4-yl)oxy]-3-fluorophenyl]-5-(4-fluorophenyl)-6-methoxy-1-methyl-4-oxopyridine-3-carboxamide]",< 100,< 100,< 100,100 to 300
"COc1cnc2c(Oc3ccc(NC(=O)c4c(C)ncc(-c5ccc(F)cc5)c4O)cc3F)ccnc2c1 [Compound 80, N-[3-Fluoro-4-[(7-methoxy-1,5-naphthyridin-4-yl)oxy]phenyl]-5-(4-fluorophenyl)-4-hydroxy-2-methylpyridine-3-carboxamide]",< 100,< 100,< 100,< 100
"COc1cc2nccc(Oc3ccc(NC(=O)c4c(C)n(C)cc(-c5ccc(F)cc5)c4=O)cc3F)c2nc1OC [Compound 81, N-[4-[(6,7-Dimethoxy-1,5-naphthyridin-4-yl)oxy]-3-fluorophenyl]-5-(4-fluorophenyl)-1,2-dimethyl-4-oxopyridine-3-carboxamide]",< 100,< 100,< 100,< 100
"CCn1cc(-c2ccc(F)cc2)c(=O)c(C(=O)Nc2ccc(Oc3ccnc4cc(OC)c(OC)nc34)c(F)c2)c1C [Compound 82, N-[4-[(6,7-Dimethoxy-1,5-naphthyridin-4-yl)oxy]-3-fluorophenyl]-1-ethyl-5-(4-fluorophenyl)-2-methyl-4-oxopyridine-3-carboxamide]",100 to 300,< 100,< 100,100 to 300
"COc1cnc2c(Oc3ccc(NC(=O)c4ccc(C)n(-c5ccc(F)cc5)c4=O)cc3F)ccnc2c1 [Compound 83, N-[3-Fluoro-4-[(7-methoxy-1,5-naphthyridin-4-yl)oxy]phenyl]-1-(4-fluorophenyl)-6-methyl-2-oxopyridine-3-carboxamide]",< 100,< 100,< 100,< 100
"COc1ccc2nccc(Oc3ccc(NC(=O)c4ccc(C)n(-c5ccc(F)cc5)c4=O)cc3F)c2n1 [Compound 84, N-[3-Fluoro-4-[(6-methoxy-1,5-naphthyridin-4-yl)oxy]phenyl]-1-(4-fluorophenyl)-6-methyl-2-oxopyridine-3-carboxamide]",100 to 300,< 100,< 100,< 100
"COc1ccc2nccc(Oc3ccc(NC(=O)c4ccc(C)n(-c5ccc(F)cc5C)c4=O)cc3F)c2n1 [Compound 85, N-[3-Fluoro-4-[(6-methoxy-1,5-naphthyridin-4-yl)oxy]phenyl]-1-(4-fluoro-2-methylphenyl)-6-methyl-2-oxopyridine-3-carboxamide]",> 300,< 100,< 100,< 100
"COc1cc2nccc(Oc3ccc(NC(=O)c4cc(C(C)=O)c(C)n(-c5ccc(F)cc5)c4=O)cc3F)c2nc1OC [Compound 86, 5-Acetyl-N-[4-[(6,7-dimethoxy-1,5-naphthyridin-4-yl)oxy]-3-fluorophenyl]-1-(4-fluorophenyl)-6-methyl-2-oxopyridine-3-carboxamide]",> 300,< 100,< 100,100 to 300
"COc1cc2nccc(Oc3ccc(NC(=O)c4cc(C#N)c(C)n(-c5ccc(F)cc5)c4=O)cc3F)c2nc1OC [Compound 87, 5-Cyano-N-[4-[(6,7-dimethoxy-1,5-naphthyridin-4-yl)oxy]-3-fluorophenyl]-1-(4-fluorophenyl)-6-methyl-2-oxopyridine-3-carboxamide]",> 300,< 100,< 100,> 300
"COc1cc2nccc(Oc3ccc(NC(=O)c4n[nH]c(C)c(-c5ccc(F)cc5)c4=O)cc3F)c2nc1OC [Compound 88, N-[4-[(6,7-Dimethoxy-1,5-naphthyridin-4-yl)oxy]-3-fluorophenyl]-5-(4-fluorophenyl)-6-methyl-4-oxo-1H-pyridazine-3-carboxamide]",< 100,< 100,< 100,< 100
"COc1ccc2nccc(Oc3ccc(NC(=O)c4n[nH]c(C)c(-c5ccc(F)cc5)c4=O)cc3F)c2n1 [Compound 89, N-[3-Fluoro-4-[(6-methoxy-1,5-naphthyridin-4-yl)oxy]phenyl]-5-(4-fluorophenyl)-6-methyl-4-oxo-1H-pyridazine-3-carboxamide]",< 100,< 100,< 100,< 100
"COc1cc2nccc(Oc3ccc(NC(=O)c4n[nH]c(C)c(-c5ccc(F)cc5C)c4=O)cc3F)c2nc1OC [Compound 90, N-[4-[(6,7-Dimethoxy-1,5-naphthyridin-4-yl)oxy]-3-fluorophenyl]-5-(4-fluoro-2-methylphenyl)-6-methyl-4-oxo-1H-pyridazine-3-carboxamide]",< 100,< 100,< 100,< 100
"COc1cc2nccc(Oc3ccc(NC(=O)c4nn(C)c(C)c(-c5ccc(F)cc5)c4=O)cc3)c2nc1OC [Compound 91, N-[4-[(6,7-Dimethoxy-1,5-naphthyridin-4-yl)oxy]phenyl]-5-(4-fluorophenyl)-1,6-dimethyl-4-oxopyridazine-3-carboxamide]",100 to 300,< 100,< 100,100 to 300
"COc1cc2nccc(Oc3ccc(NC(=O)c4nn(C)c(C)c(-c5ccc(F)cc5)c4=O)cc3F)c2nc1OC [Compound 92, N-[4-[(6,7-Dimethoxy-1,5-naphthyridin-4-yl)oxy]-3-fluorophenyl]-5-(4-fluorophenyl)-1,6-dimethyl-4-oxopyridazine-3-carboxamide]",100 to 300,< 100,< 100,< 100
"COc1cc2nccc(Oc3ccc(NC(=O)c4ncc(C)n(-c5ccc(F)cc5)c4=O)cc3F)c2nc1OC [Compound 93, N-[4-[(6,7-Dimethoxy-1,5-naphthyridin-4-yl)oxy]-3-fluorophenyl]-4-(4-fluorophenyl)-5-methyl-3-oxopyrazine-2-carboxamide]",< 100,< 100,< 100,< 100
"COc1cnc2c(Oc3ccc(NC(=O)c4ncc(C)n(-c5ccc(F)cc5)c4=O)cc3F)ccnc2c1 [Compound 94, N-[3-Fluoro-4-[(7-methoxy-1,5-naphthyridin-4-yl)oxy]phenyl]-4-(4-fluorophenyl)-5-methyl-3-oxopyrazine-2-carboxamide]",> 300,< 100,< 100,> 300
